Measured values published in patent US4339440A, “Enkephalin analogs and a process for the preparation thereof” (priority 1980, dated 1982).
Square brackets hold non-standard residues; d marks the D form. Ends that are not written are not given here.

Columns and labels:
[1] = tested on: anesthetized cats; test: Cardiovascular effects in cats anesthetized with pentobarbital (blood pressure, heart rate, vasomotor reflex elicited by carotis occlusion); format: in vivo
Method: In addition to the effects on the blood pressure and heart rate, the actions on the vasomotor reflex elicited by carotis occlusion, were also studied. […] The duration of the former effects was 20-25 min., while that of the latter was 40-60 min. […] It is noteworthy that the reference compound morphine […] hypotension of similar magnitude produced by 0.1 mg/kg of peptides only in doses higher than 1.0 mg/kg (Table 2).
(a) Cats of both sexes, weighing 3000-4000 g, anesthetized with 35 mg/kg pentobarbital, i.p.
(b) C.O.: Inhibition of vasomotor reflex elicited by carotis occlusion;

[2] = tested on: mouse vas deferens (MVD); details: literature comparison of GPI and MVD preparations; cited from earlier work

Molecule: CN1CC[C@]23c4c5ccc(O)c4O[C@H]2[C@@H](O)C=C[C@H]3[C@H]1C5 [Morphine, morphine]
- Decrease of heart rate ([1]; 0.2 mg/kg i.v.): .phi.
- Fall in blood pressure ([1]; 0.2 mg/kg i.v.): 6.7 ± 2.1 mm Hg
- Inhibition of C.O. (vasomotor reflex elicited by carotis occlusion) ([1]; 0.2 mg/kg i.v.): .phi.
- Decrease of heart rate ([1]; 1.0 mg/kg i.v.): 10.2 ± 2.3 beat/min.
- Fall in blood pressure ([1]; 1.0 mg/kg i.v.): 16.7 ± 3.2 mm Hg
- Inhibition of C.O. (vasomotor reflex elicited by carotis occlusion) ([1]; 1.0 mg/kg i.v.): + (inhibition is smaller than 50%)
- Decrease of heart rate ([1]; 5.0 mg/kg i.v.): 16.7 ± 3.5 beat/min.
- Fall in blood pressure ([1]; 5.0 mg/kg i.v.): 33.6 ± 6.7 mm Hg
- Inhibition of C.O. (vasomotor reflex elicited by carotis occlusion) ([1]; 5.0 mg/kg i.v.): ++ (inhibition is higher than 50%)
- Dose eliciting hypotension of similar magnitude to that produced by 0.1 mg/kg of peptides ([1]; i.v.): higher than 1.0 mg/kg
- Activity on MVD compared with GPI (in words) [2]: higher activity on GPI

Molecule: Tyr-D-Ala-Gly-MePhe-Met(O)-ol
- Activity on MVD compared with GPI (in words) [2]: twice as active on GPI as on MVD

Molecule: Tyr-D-Ala-Gly-Phe-D-Leu
- Activity on MVD compared with GPI (in words) [2]: more active on MVD than on GPI

Molecule: Y[dM]GFP-NH2
- Activity on MVD compared with GPI (in words) [2]: the same level of activity on both preparations

Molecule: β-Endorphine: β-Endorphine of natural occurrence (a 31-membered polypeptide) (YGGFMTSEKSQTPLVTLFKNAIIKNAYKKGE; Beta-endorphin; UniProt P01189 237-267, looked up)
- Activity on MVD compared with GPI (in words) [2]: equally active on GPI and MVD
